Experimental data: the supplement of paper PMC10307832

Columns and labels:
Test in all cases: relative viability (nuclei count vs DMSO), 5 days (fraction); higher = more cells survive
NCI-H2085 = tested on: NCI-H2085
Procedure, shortened: (§1)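 After 5 days of treatment, lung cancer cells in 1536-well plates were fixed and stained in a single step (final 0.05% Triton X-100, 1% formaldehyde, 1 ug/ml Hoechst) and their nuclei counted on 4× images. Treatment had been applied by pin tool the day after seeding as one drug alone or as a fixed anchor-drug dose with five library-drug doses (not always all listed) in √10 steps. Relative viability is the nuclei count of treated wells divided by that of vehicle wells, and values are medians of duplicate plates.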

EMC-BAC-2 = tested on: EMC-BAC-2
Procedure, shortened: as §1

NCI-H1915 = tested on: NCI-H1915
Procedure, shortened: as §1

NCI-H322M = tested on: NCI-H322M
Procedure, shortened: as §1

NCI-H1734 = tested on: NCI-H1734
Procedure, shortened: as §1

NCI-H647 = tested on: NCI-H647
Procedure, shortened: as §1

EPLC-272H = tested on: EPLC-272H
Procedure, shortened: as §1

NCI-H2126 = tested on: NCI-H2126
Procedure, shortened: as §1

NCI-H2347 = tested on: NCI-H2347
Procedure, shortened: as §1

LXF-289 = tested on: LXF-289
Procedure, shortened: as §1

NCI-H1993 = tested on: NCI-H1993
Procedure, shortened: as §1

SW 1573 = tested on: SW 1573
Procedure, shortened: as §1

NCI-H2009 = tested on: NCI-H2009
Procedure, shortened: as §1

NCI-H727 = tested on: NCI-H727
Procedure, shortened: as §1

NCI-H1563 = tested on: NCI-H1563
Procedure, shortened: as §1

H3255 = tested on: H3255
Procedure, shortened: as §1

NCI-H661 = tested on: NCI-H661
Procedure, shortened: as §1

HOP-62 = tested on: HOP-62
Procedure, shortened: as §1

LCLC-97TM1 = tested on: LCLC-97TM1
Procedure, shortened: as §1

NCI-H2023 = tested on: NCI-H2023
Procedure, shortened: as §1

SK-LU-1 = tested on: SK-LU-1
Procedure, shortened: as §1

PC-14 = tested on: PC-14
Procedure, shortened: as §1

Work on CC(=O)O[C@@]12CO[C@@H]1C[C@H](O)[C@@]1(C)C(=O)[C@H](O)C3=C(C)[C@@H](OC(=O)[C@H](O)[C@@H](NC(=O)OC(C)(C)C)c4ccccc4)C[C@@](O)([C@@H](OC(=O)c4ccccc4)[C@H]21)C3(C)C [Docetaxel] + CS(=O)(=O)CCNCc1ccc(-c2ccc3ncnc(Nc4ccc(OCc5cccc(F)c5)c(Cl)c4)c3c2)o1 [Lapatinib] (partner 2 µM) yielded a relative viability (NCI-H2085; first compound 0.0002 µM) of 0.787, a relative viability (NCI-H2085; first compound 0.000632 µM) of 0.71 and a relative viability (NCI-H2085; first compound 0.002 µM) of 0.507. For the same molecule, the relative viability (NCI-H2085; first compound 0.006325 µM) was 0.462, the relative viability (NCI-H2085; first compound 0.02 µM) was 0.342 and the relative viability (EMC-BAC-2; first compound 0.0002 µM) was 0.735. It also gave a relative viability (EMC-BAC-2; first compound 0.000632 µM) of 0.613, a relative viability (EMC-BAC-2; first compound 0.002 µM) of 0.337 and a relative viability (EMC-BAC-2; first compound 0.006325 µM) of 0.278. The relative viability (EMC-BAC-2; first compound 0.02 µM) was 0.209, the relative viability (NCI-H1915; first compound 0.0002 µM) was 0.937 and the relative viability (NCI-H1915; first compound 0.000632 µM) was 0.665. It also gave a relative viability (NCI-H1915; first compound 0.002 µM) of 0.351, a relative viability (NCI-H1915; first compound 0.006325 µM) of 0.146 and a relative viability (NCI-H1915; first compound 0.02 µM) of 0.118. For the same molecule, the relative viability (NCI-H322M; first compound 0.0002 µM) was 0.511, the relative viability (NCI-H322M; first compound 0.000632 µM) was 0.593 and the relative viability (NCI-H322M; first compound 0.002 µM) was 0.497. For the same molecule, the relative viability (NCI-H322M; first compound 0.006325 µM) was 0.46, the relative viability (NCI-H322M; first compound 0.02 µM) was 0.293 and the relative viability (NCI-H1734; first compound 0.0002 µM) was 0.986. The relative viability (NCI-H1734; first compound 0.000632 µM) was 0.549, the relative viability (NCI-H1734; first compound 0.002 µM) was 0.429 and the relative viability (NCI-H1734; first compound 0.006325 µM) was 0.322. It also gave a relative viability (NCI-H1734; first compound 0.02 µM) of 0.221, a relative viability (NCI-H647; first compound 0.0002 µM) of 0.868 and a relative viability (NCI-H647; first compound 0.000632 µM) of 0.217. The relative viability (NCI-H647; first compound 0.002 µM) was 0.119, the relative viability (NCI-H647; first compound 0.006325 µM) was 0.0918 and the relative viability (NCI-H647; first compound 0.02 µM) was 0.0858. For the same molecule, the relative viability (EPLC-272H; first compound 0.0002 µM) was 1.04, the relative viability (EPLC-272H; first compound 0.000632 µM) was 0.76 and the relative viability (EPLC-272H; first compound 0.002 µM) was 0.199. For the same molecule, the relative viability (EPLC-272H; first compound 0.006325 µM) was 0.0933, the relative viability (EPLC-272H; first compound 0.02 µM) was 0.114 and the relative viability (NCI-H2126; first compound 0.0002 µM) was 0.738. It also gave a relative viability (NCI-H2126; first compound 0.000632 µM) of 0.683, a relative viability (NCI-H2126; first compound 0.002 µM) of 0.562 and a relative viability (NCI-H2126; first compound 0.006325 µM) of 0.395. The relative viability (NCI-H2126; first compound 0.02 µM) was 0.253, the relative viability (NCI-H2347; first compound 0.0002 µM) was 1.01 and the relative viability (NCI-H2347; first compound 0.000632 µM) was 1.05. For the same molecule, the relative viability (NCI-H2347; first compound 0.002 µM) was 0.839, the relative viability (NCI-H2347; first compound 0.006325 µM) was 0.512 and the relative viability (NCI-H2347; first compound 0.02 µM) was 0.479. The relative viability (LXF-289; first compound 0.0002 µM) was 0.926, the relative viability (LXF-289; first compound 0.000632 µM) was 0.847 and the relative viability (LXF-289; first compound 0.002 µM) was 0.393. For the same molecule, the relative viability (LXF-289; first compound 0.006325 µM) was 0.137, the relative viability (LXF-289; first compound 0.02 µM) was 0.109 and the relative viability (NCI-H1993; first compound 0.0002 µM) was 0.796. The relative viability (NCI-H1993; first compound 0.000632 µM) was 0.824, the relative viability (NCI-H1993; first compound 0.002 µM) was 0.627 and the relative viability (NCI-H1993; first compound 0.006325 µM) was 0.534. The relative viability (NCI-H1993; first compound 0.02 µM) was 0.451, the relative viability (SW 1573; first compound 0.0002 µM) was 1.06 and the relative viability (SW 1573; first compound 0.000632 µM) was 0.946. For the same molecule, the relative viability (SW 1573; first compound 0.002 µM) was 0.321, the relative viability (SW 1573; first compound 0.006325 µM) was 0.256 and the relative viability (SW 1573; first compound 0.02 µM) was 0.192. It also gave a relative viability (NCI-H2009; first compound 0.0002 µM) of 0.965, a relative viability (NCI-H2009; first compound 0.000632 µM) of 0.922 and a relative viability (NCI-H2009; first compound 0.002 µM) of 0.412. For the same molecule, the relative viability (NCI-H2009; first compound 0.006325 µM) was 0.195, the relative viability (NCI-H2009; first compound 0.02 µM) was 0.12 and the relative viability (NCI-H727; first compound 0.0002 µM) was 0.854. For the same molecule, the relative viability (NCI-H727; first compound 0.000632 µM) was 0.787, the relative viability (NCI-H727; first compound 0.002 µM) was 0.371 and the relative viability (NCI-H727; first compound 0.006325 µM) was 0.26. It also gave a relative viability (NCI-H1563; first compound 0.0002 µM) of 0.969, a relative viability (NCI-H1563; first compound 0.000632 µM) of 1.01 and a relative viability (NCI-H1563; first compound 0.002 µM) of 0.971. It also gave a relative viability (NCI-H1563; first compound 0.006325 µM) of 0.747, a relative viability (NCI-H1563; first compound 0.02 µM) of 0.581 and a relative viability (H3255; first compound 0.0002 µM) of 0.227. It also gave a relative viability (H3255; first compound 0.002 µM) of 0.223, a relative viability (H3255; first compound 0.006325 µM) of 0.19 and a relative viability (H3255; first compound 0.02 µM) of 0.175. For the same molecule, the relative viability (NCI-H661; first compound 0.0002 µM) was 0.495, the relative viability (NCI-H661; first compound 0.000632 µM) was 0.516 and the relative viability (NCI-H661; first compound 0.002 µM) was 0.4. The relative viability (NCI-H661; first compound 0.006325 µM) was 0.369, the relative viability (NCI-H661; first compound 0.02 µM) was 0.245 and the relative viability (HOP-62; first compound 0.0002 µM) was 0.828. For the same molecule, the relative viability (HOP-62; first compound 0.000632 µM) was 0.448, the relative viability (HOP-62; first compound 0.02 µM) was 0.112 and the relative viability (LCLC-97TM1; first compound 0.000632 µM) was 0.865. It also gave a relative viability (LCLC-97TM1; first compound 0.002 µM) of 0.155, a relative viability (LCLC-97TM1; first compound 0.006325 µM) of 0.175 and a relative viability (LCLC-97TM1; first compound 0.02 µM) of 0.083. For the same molecule, the relative viability (NCI-H2023; first compound 0.0002 µM) was 0.722, the relative viability (NCI-H2023; first compound 0.000632 µM) was 0.408 and the relative viability (NCI-H2023; first compound 0.002 µM) was 0.135. For the same molecule, the relative viability (NCI-H2023; first compound 0.006325 µM) was 0.1, the relative viability (NCI-H2023; first compound 0.02 µM) was 0.0578 and the relative viability (SK-LU-1; first compound 0.0002 µM) was 0.581. It also gave a relative viability (SK-LU-1; first compound 0.000632 µM) of 0.436, a relative viability (SK-LU-1; first compound 0.002 µM) of 0.338 and a relative viability (SK-LU-1; first compound 0.006325 µM) of 0.222. It also gave a relative viability (SK-LU-1; first compound 0.02 µM) of 0.233, a relative viability (PC-14; first compound 0.0002 µM) of 0.272 and a relative viability (PC-14; first compound 0.000632 µM) of 0.417. It also gave a relative viability (PC-14; first compound 0.002 µM) of 0.235, a relative viability (PC-14; first compound 0.006325 µM) of 0.0958 and a relative viability (PC-14; first compound 0.02 µM) of 0.0629.
